Key:
Assay type in all cases: in vivo
[1] = system: blackgrass (Alopecurus myosuroides); assay: Test B postemergence
Description: (§1) Seeds selected from barnyardgrass (Echinochloa crus-galli), Surinam grass (Brachiaria decumbens), cocklebur (Xanthium strumarium), corn (Zea mays), crabgrass (Digitaria sanguinalis), giant foxtail (Setaria faberii), lambsquarters (Chenopodium album), morningglory (Ipomoea coccinea), pigweed (Amaranthus retroflexus), velvetleaf (Abutilon theophrasti), and wheat (Triticum aestivum) were planted and treated preemergence with test chemicals formulated in a non-phytotoxic solvent mixture which included a surfactant.
(§2) At the same time, plants selected from these crop and weed species and also blackgrass (Alopecurus myosuroides) and wild oat (Avena fatua) were treated with postemergence applications of test chemicals formulated in the same manner. Plants ranged in height from 2 to 18 cm (1- to 4-leaf stage) for postemergence treatments. Plant species in the flooded paddy test consisted of rice (Oryza sativa), umbrella sedge (Cyperus difformis), duck salad (Heteranthera limosa) and barnyardgrass (Echinochloa crus-galli) grown to the 2-leaf stage for testing. Treated plants and controls were maintained in a greenhouse for 13 to 15 days, after which time all species were compared to controls and visually evaluated. Plant response ratings, summarized in Table B, are based on a scale of 0 to 100 where 0 is no effect and 100 is complete control. A dash (-) response means no test result.

wild oat (Avena fatua) = assay: Test B postemergence
Description: as §1, §2

[2] = system: cocklebur (Xanthium strumarium); assay: Test B pre/postemergence
Description: as §1, §2

[3] = system: lambsquarters (Chenopodium album); assay: Test B pre/postemergence; settings: Postemergence
Description: as §1, §2

[4] = system: pigweed (Amaranthus retroflexus); assay: Test B pre/postemergence
Description: as §1, §2

corn (Zea mays) = assay: Test B pre/postemergence
Description: as §1, §2

[5] = system: morningglory (Ipomoea coccinea); assay: Test B pre/postemergence
Description: as §1, §2

[6] = system: crabgrass (Digitaria sanguinalis); assay: Test B pre/postemergence
Description: as §1, §2

[7] = system: barnyardgrass (Echinochloa crus-galli); assay: Test B pre/postemergence
Description: as §1, §2

[8] = system: velvetleaf (Abutilon theophrasti); assay: Test B pre/postemergence
Description: as §1, §2

[9] = system: giant foxtail (Setaria faberii); assay: Test B pre/postemergence
Description: as §1, §2

[10] = system: wheat (Triticum aestivum); assay: Test B pre/postemergence
Description: as §1, §2

[11] = system: Surinam grass (Brachiaria decumbens); assay: Test B pre/postemergence
Description: as §1, §2

[12] = 125 g ai/ha, scale 0 to 100 (0 no effect, 100 complete control)
[13] = Postemergence, 125 g ai/ha, scale 0 to 100 (0 no effect, 100 complete control)
[14] = Postemergence, 500 g ai/ha, scale 0 to 100
[15] = Preemergence, 125 g ai/ha, scale 0 to 100 (0 no effect, 100 complete control)
[16] = Preemergence, 500 g ai/ha, scale 0 to 100 (0 no effect, 100 complete control)

## CCOC(=O)c1nc(C2CC2)nc(NNC(C)=O)c1Br [Compound 126]
[1]; [12]
  Blackgrass plant response rating: 0
[1]; 500 g ai/ha, scale 0 to 100
  Plant response rating, Blackgrass: 0
Wild oat (Avena fatua); [12]
  Oat, Wild plant response rating: 0
Wild oat (Avena fatua); 500 g ai/ha, scale 0 to 100
  Plant response rating, Oat, Wild: 20
[2]; [13]
  Cocklebur plant response rating: 0
[2]; [14]
  Plant response rating, Cocklebur: 0
[2]; [15]
  Plant response rating, Cocklebur: 0
[2]; [16]
  Plant response rating, Cocklebur: 90
[3]; [12]
  Lambsquarters plant response rating: 30
[3]; 500 g ai/ha, scale 0 to 100
  Plant response rating, Lambsquarters: 40
[4]; [13]
  Pigweed plant response rating: 0
[4]; [14]
  Plant response rating, Pigweed: 30
[4]; [15]
  Plant response rating, Pigweed: 20
[4]; [16]
  Plant response rating, Pigweed: 80
Corn (Zea mays); [13]
  Corn plant response rating: 0
Corn (Zea mays); [14]
  Plant response rating, Corn: 10
Corn (Zea mays); [15]
  Plant response rating, Corn: 0
Corn (Zea mays); [16]
  Plant response rating, Corn: 0
[5]; [13]
  Morningglory plant response rating: 30
[5]; [14]
  Plant response rating, Morningglory: 60
[5]; [15]
  Plant response rating, Morningglory: 0
[5]; [16]
  Plant response rating, Morningglory: 70
[6]; [13]
  Crabgrass plant response rating: 0
[6]; [14]
  Plant response rating, Crabgrass: 20
[6]; [15]
  Plant response rating, Crabgrass: 80
[6]; [16]
  Plant response rating, Crabgrass: 100
[7]; [13]
  Barnyardgrass plant response rating: 0
[7]; [14]
  Plant response rating, Barnyardgrass: 0
[7]; [15]
  Plant response rating, Barnyardgrass: 0
[7]; [16]
  Plant response rating, Barnyardgrass: 0
[8]; [13]
  Velvetleaf plant response rating: 10
[8]; [14]
  Plant response rating, Velvetleaf: 20
[8]; [15]
  Plant response rating, Velvetleaf: 10
[8]; [16]
  Plant response rating, Velvetleaf: 20
[9]; [13]
  Foxtail, Giant plant response rating: 0
[9]; [14]
  Plant response rating, Foxtail, Giant: 0
[9]; [15]
  Plant response rating, Foxtail, Giant: 0
[9]; [16]
  Plant response rating, Foxtail, Giant: 0
[10]; [13]
  Wheat plant response rating: 0
[10]; [14]
  Plant response rating, Wheat: 0
[10]; [15]
  Plant response rating, Wheat: 0
[10]; [16]
  Plant response rating, Wheat: 0
[11]; [13]
  Surinam Grass plant response rating: 0
[11]; [14]
  Plant response rating, Surinam Grass: 70
[11]; [15]
  Plant response rating, Surinam Grass: 0
[11]; [16]
  Plant response rating, Surinam Grass: 20

From US8802597B2, “Herbicidal pyrimidines” (E I du Pont de Nemours and Company, priority 2003, dated 2014)
